Here are results for 1 compound from patent US20080139649A1, “Fatty Acid-Benzenediol Derivatives and Methods of Making and Using Thereof” (priority 2005, published 2008).

The nature of the data set: Solubility of CoQ10 in fish oil and fish oil concentrates under different conditions and time of storage. The note with it: for Solubility of CoQ10 in 1812TG, confirmed solubility / Solubility of CoQ10 in 4020EE, confirmed solubility: heating prior storage. It is filed as physicochemical. The source says:
CoQ10 was solubilized in 0355 EE (fish oil concentrate in ethylester form containing 3% EPA and 55% DHA), 4020EE (fish oil concentrate in ethylester form containing 40% EPA and 20% DHA) and 1812TG (purified fish oil containing 18% EPA and 12% of DHA) and the final solubility was examined under different conditions and time of storage. All of these starting oils were manufactured by Ocean Nutrition Canada, Mulgrave, NS).

Structures are written as SMILES. Where only a bound is given, the exact number is not on record here.

As to `COC1=C(OC)C(=O)C(C/C=C(\C)CC/C=C(\C)CC/C=C(\C)CC/C=C(\C)CC/C=C(\C)CC/C=C(\C)CC/C=C(\C)CC/C=C(\C)CC/C=C(\C)CCC=C(C)C)=C(C)C1=O` [CoQ10ox, 2,3-dimethyoxy-5-methyl-6-decaprenyl-1,4-benzoquinone], the “Solubility of CoQ10 in 0355EE, confirmed solubility” value is, setting by setting: (0355EE (ethylester concentrate, 3% EPA, 55% DHA), solubility at RT, no heating prior storage) 6.6 %, w/w; (0355EE, solubility at 50° C.) 27%, w/w; (0355EE, storage at 4° C. (line after solubility at 50° C.)) 3.2%, w/w; (0355EE, storage at 4° C. for 24 h, no heating prior storage) 2.5 %, w/w. Moreover, the “Solubility of CoQ10 in 1812TG, confirmed solubility” value is, setting by setting: (1812TG (purified fish oil, 18% EPA, 12% DHA), solubility at 50° C.) 11 %, w/w; (1812TG, storage at 4° C.) <2.9 %, w/w. Moreover, the “Solubility of CoQ10 in 4020EE, confirmed solubility” value by setting is: (4020EE (ethylester concentrate, 40% EPA, 20% DHA), solubility at 50° C.) 9 %, w/w; (4020EE, storage at 4° C.) 5.7 %, w/w.
